Laboratory results from patent publication US4745124A, “Orally effective anti-hypertensive agents” (priority 1983, dated 1988).
Where two headings read alike, the source gives them in different places. One block for each compound: values may come before it. No end group written: not given here. *: point of attachment. Bz = O=C(c1ccccc1)*

Experiments:
[1] = target: T1, angiotensin converting enzyme (human urinary ACE) (Homo sapiens, UniProt P12821); test: ACE activity assay, I50 (Example 216A); format: biochemical; details: Benzoyl-GlyHisLeu 1×10^-4 M, Hepes pH 8.0, 37° C, in vitro
T1 construct: ACE purified from human urine; from tissue; host or cells: human urine (ultrafiltration and Sephacryl S-200, first eluting peak; prepared as in Ryan et al., Tissue and Cell 10, 555 (1978))

[2] = tested on: pressor effects of angiotensin I; test: oral effectiveness: blood pressure response to angiotensin I in anesthetized rats; format: in vivo, rat; details: oral 20 μmol/kg
Experimental: Rats (210-290 g body weight) were fasted overnight and then anesthetized with intraperitoneal pentobarbital, 50-60 mg/kg. Tracheostomy was performed and the animals were ventilated mechanically. A cannula was inserted into a femoral vein for injection of angiotensin I or II, and a second cannula was inserted into a common carotid artery for direct measurement of arterial blood pressure. Heparin, 1,000 units, was injected via the femoral vein to prevent coagulation. Blood pressure was measured with a pressure transducer connected to a polygraph. The rats were injected with 80 ng of angiotensin I or angiotensin II in 20 μl of 0.9 g % NaCl; an amount of antiotensin I or II sufficient to raise mean arterial blood pressure by 27-40 mm Hg. After the responsiveness of a given rat to angiotensins I and II was established, compound (I), at 2 or 5 mg/kg (drug dissolved in 0.5 ml of H2 O plus 10 μl of 1N NaHCO3), was given via a stomach tube. At timed intervals, the effects of 80 ng of angiotensin I or angiotensin II on mean arterial blood pressure were tested.
Rats were prepared as described in Example 222. Compound (II) [N-benzoyl-L-phenylalanylthiopropanoyl)-L-proline] was given orally, via a stomach tube, at a dose of 12 mg/kg or 20 mg/kg. Compound (II) was dissolved in 0.5 ml of H2 O plus 10 μl of 1N NaHCO3. In all other respects, the experimental preparations were exactly as described in Example 222.
Rats (210-290 g body weight) were fasted overnight and then anesthetized with intraperitoneal pentobarbital, 50-60 mg/kg. Tracheostomy was performed and the animals were ventilated mechanically. A cannula was inserted into a femoral vein for injection of angiotensin I or II, and a second cannula was inserted into a common carotid artery for direct measurement of arterial blood pressure. Heparin, 1,000 units, was injected via the femoral vein to prevent coagulation. Blood pressure was measured with a pressure transducer connected to a polygraph. The rats were injected with 160 ng of angiotensin I or 80 ng of angiotensin II in 20 μl of 0.9 g % NaCl; an amount of angiotensin I or II sufficient to raise mean arterial blood pressure by 27-40 mm Hg. After the responsiveness of a given rat to angiotensins I and II was established, compound (B) at 10 mg (drug dissolved in 0.5 ml of H2 O plus 10 μl of 1N NaHCO3), was given via a stomach tube. At timed intervals, the effects of 160 ng of angiotensin I or 80 ng of angiotensin II on mean arterial blood pressure were tested. Results are shown below:
Rats (210-290 g body weight) were fasted overnight and then anesthetized with intraperitoneal pentobarbital, 50-60 mg/kg. Tracheostomy was performed and the animals were ventilated mechanically. A cannula was inserted into a femoral vein for injection of angiotensin I, and a second cannula was inserted into a common carotid artery for direct measurement of arterial blood pressure. Heparin, 1,000 units, was injected via the femoral vein to prevent coagulation. Blood pressure was measured with a pressure transducer connected to a polygraph. The rats were injected with 400 ng/kg of angiotensin I in 20 μl of 0.9 g % NaCl; an amount of angiotensin I sufficient to raise mean arterial blood pressure by 39 mm Hg. After the responsiveness of a given rat to angiotensin I was established, the named compound at 17 μmol/kg (drug dissolved in 0.15 ml of H2 O plus 10 μl of 1N NaHCO3), was given via a stomach tube. At timed intervals, the effects of 400 ng/kg of angiotensin I on mean arterial blood pressure were tested. Results are shown below:
Rats (190-290 g body weight) were fasted overnight and then anesthetized with intraperitoneal pentobarbital, 50-60 mg/kg. Tracheostomy was performed and the animals were ventilated mechanically. A cannula was inserted into a femoral vein for injection of angtiotensin I, and a second cannula was inserted into a common carotid artery for direct measurement of arterial blood pressure. […]

[3] = tested on: pressor effects of angiotensin I; test: intravenous effectiveness: blood pressure response to angiotensin I in anesthetized rats; format: in vivo, rat; details: for t1/2: recovery of one half of lost responsiveness to angiotensin I 400 ng/kg; for Blood Pressure Response to 400 ng/kg Angiotensin I: i.v. 2 μmol/kg, Ex. 232
Experimental: (§1) Anesthetized rats were prepared as described in Example 228. After the responsiveness of a given rat to angiotensin I was established, the named compound at 2 μmol/kg, in a volume of 15 μl of 0.01N sodium bicarbonate, was injected via a femoral vein. At timed intervals, the effects of angiotensin I, 400 ng/kg, on mean arterial blood pressure were tested. Results are shown below:
as §1, with “231.” for “228.”, “compound,” for “compound”
Anesthetized rats were prepared as described in Example 239. The animals were administered the named compound via a femoral vein in 15 μl of 0.01N sodium bicarbonate, after the control response to 400 ng/kg of angiotensin I was measured. […] The time required for recovery of one half of the lost responsiveness to angiotensin I, following injection of the named compound, was designated t1/2. […] Results are shown for two dose levels:
Anesthetized rats were prepared as described in Example 242. The named compound was administered intravenously via a femoral vein, at the stated dose, in 15 μl of 0.01N sodium bicarbonate. The response to intravenous administration was a rapid decrease in responsiveness to Angtiotensin I, 400 ng/kg, followed by a gradual recovery to the pretreatment level of responsiveness. The time required for recovery of one half the lost responsiveness to angiotensin I, following injection of the named compound, is designated t1/2. […] Results are shown for the three dose levels:
The intravenous effectiveness of the named compound was examined by following the procedure described in Example 244 except that 1 μmole/kg of the drug was given intravenously. The results are shown below:
The intravenous effectiveness of the named compound was examined by following the procedure described in Example 246 except that 1 μmole/Kg of the drug was given intravenously.

[4] = human urinary ACE, read-out: I50

T1 sequence (P12821 30-1232 limits assumed): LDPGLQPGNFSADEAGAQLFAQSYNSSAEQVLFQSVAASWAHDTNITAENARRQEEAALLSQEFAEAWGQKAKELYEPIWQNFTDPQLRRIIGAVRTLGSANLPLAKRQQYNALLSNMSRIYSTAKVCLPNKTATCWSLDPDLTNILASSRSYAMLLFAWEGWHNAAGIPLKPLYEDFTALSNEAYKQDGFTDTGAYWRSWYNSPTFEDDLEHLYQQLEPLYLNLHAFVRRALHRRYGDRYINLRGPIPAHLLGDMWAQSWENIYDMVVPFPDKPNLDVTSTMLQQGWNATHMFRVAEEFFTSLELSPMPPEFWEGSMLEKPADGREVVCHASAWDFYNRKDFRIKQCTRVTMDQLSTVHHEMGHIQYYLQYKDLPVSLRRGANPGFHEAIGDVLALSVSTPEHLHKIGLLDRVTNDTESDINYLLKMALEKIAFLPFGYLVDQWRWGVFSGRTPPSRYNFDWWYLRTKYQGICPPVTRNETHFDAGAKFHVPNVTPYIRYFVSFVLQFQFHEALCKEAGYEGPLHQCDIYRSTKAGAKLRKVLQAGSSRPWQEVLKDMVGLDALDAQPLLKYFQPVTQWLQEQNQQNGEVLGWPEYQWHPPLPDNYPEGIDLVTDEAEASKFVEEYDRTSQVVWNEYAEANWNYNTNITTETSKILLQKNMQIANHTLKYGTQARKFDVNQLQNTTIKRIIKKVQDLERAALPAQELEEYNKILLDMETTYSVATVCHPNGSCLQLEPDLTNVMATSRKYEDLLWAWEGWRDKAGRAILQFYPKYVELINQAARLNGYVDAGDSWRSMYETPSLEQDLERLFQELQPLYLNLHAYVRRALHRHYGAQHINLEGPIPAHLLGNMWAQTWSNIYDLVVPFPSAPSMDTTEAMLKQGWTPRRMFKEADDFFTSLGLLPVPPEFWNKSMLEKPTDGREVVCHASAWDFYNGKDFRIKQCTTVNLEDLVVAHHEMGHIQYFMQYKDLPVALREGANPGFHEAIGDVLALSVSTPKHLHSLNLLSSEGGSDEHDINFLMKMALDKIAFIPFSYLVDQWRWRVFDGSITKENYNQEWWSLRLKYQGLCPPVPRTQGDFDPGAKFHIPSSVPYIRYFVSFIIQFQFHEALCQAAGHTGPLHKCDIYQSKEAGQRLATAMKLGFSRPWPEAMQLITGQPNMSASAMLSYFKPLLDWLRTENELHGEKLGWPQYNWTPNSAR

- IC50 [1, 4]: 0.7 µM
Compound: O=C(NC(Cc1ccccc1)C(=O)SCCC(=O)N1CCC[C@H]1C(=O)O)c1ccccc1 (stereo partly drawn) [(III), 3-benzoylphenylalanylthio-propanoyl-L-proline]

- IC50 [1, 4]: 0.016 µM
Compound: C[C@H](CSC(=O)[C@H](Cc1ccccc1)NC(=O)c1ccccc1)C(=O)N1CCC[C@H]1C(=O)O [Example 196, N-[3-(benzoyl-L-phenylalanylthio)-2-D-methyl-propanoyl]-L-proline]

- IC50 [1, 4]: 0.009 µM
Compound: C[C@H](CSC(=O)[C@@H](Cc1ccccc1)NC(=O)c1ccccc1)C(=O)N1CCC[C@H]1C(=O)O [Example 197, N-[3-(benzoyl-D-phenylalanylthio)-2-D-methyl-propanoyl]-L-proline]

Compound: N[C@@H](CS)C(=O)O [L-cysteine]
- IC50 ([1]; I50, human urinary ACE): 200 µM

- IC50 [1, 4]: 1000 µM
Compound: O=C(O)[C@@H]1CCCN1 [L-proline]

Compound: C[C@H](CSC(=O)CNC(=O)c1ccccc1)C(=O)N1CCC[C@H]1C(=O)O [N-alpha-[3-(N-alpha-benzoylglycylthio)-2-D-methylpropanoyl]-L-proline]
- Blood Pressure Response to 400 ng/kg of Angiotensin I ([2]; 1 min, Ex. 239): 95 % of Control
- Blood Pressure Response to 400 ng/kg of Angiotensin I ([2]; 6 min, Ex. 239): 95 % of Control
- Blood Pressure Response to 400 ng/kg of Angiotensin I ([2]; 11 min, Ex. 239): 95 % of Control
- Blood Pressure Response to 400 ng/kg of Angiotensin I ([2]; 22 min, Ex. 239): 92 % of Control
- Blood Pressure Response to 400 ng/kg of Angiotensin I ([2]; 28 min, Ex. 239): 68 % of Control
- Blood Pressure Response to 400 ng/kg of Angiotensin I ([2]; 33 min, Ex. 239): 61 % of Control
- Blood Pressure Response to 400 ng/kg of Angiotensin I ([2]; 39 min, Ex. 239): 58 % of Control
- Blood Pressure Response to 400 ng/kg of Angiotensin I ([2]; 45 min, Ex. 239): 47 % of Control
- Blood Pressure Response to 400 ng/kg of Angiotensin I ([2]; 60 min, Ex. 239): 47 % of Control
- Blood Pressure Response to 400 ng/kg of Angiotensin I ([2]; 67 min, Ex. 239): 45 % of Control
- Blood Pressure Response to 400 ng/kg of Angiotensin I ([2]; 74 min, Ex. 239): 47 % of Control
- Blood Pressure Response to 400 ng/kg of Angiotensin I ([2]; 82 min, Ex. 239): 47 % of Control
- Blood Pressure Response to 400 ng/kg of Angiotensin I ([2]; 92 min, Ex. 239): 47 % of Control
- Blood Pressure Response to 400 ng/kg of Angiotensin I ([2]; 137 min, Ex. 239): 55 % of Control
- Blood Pressure Response to 400 ng/kg of Angiotensin I ([2]; 142 min, Ex. 239): 55 % of Control
- Blood Pressure Response to 400 ng/kg of Angiotensin I ([2]; 152 min, Ex. 239): 47 % of Control
- Blood Pressure Response to 400 ng/kg of Angiotensin I ([2]; 185 min, Ex. 239): 63 % of Control
- Blood Pressure Response to 400 ng/kg of Angiotensin I ([2]; 207 min, Ex. 239): 79 % of Control
- Blood Pressure Response to 400 ng/kg of Angiotensin I ([2]; 230 min, Ex. 239): 74 % of Control
- t1/2 ([3]; i.v. 0.23 μmol/kg): 26 min
- t1/2 ([3]; i.v. 0.7 μmol/kg): 36 min

- IC50 [1, 4]: 0.025 µM
Compound: C[C@H](CSC(=O)[C@H](Cc1ccccc1)NC(=O)[C@H](CCCCNC(=O)OC(C)(C)C)NC(=O)C1CCCC1)C(=O)N1CCC[C@H]1C(=O)O [N-alpha-[3-(N-alpha-cyclopentylcarbonyl-N-epsilon-tert-butyloxycarbonyl-L-lysyl-L-phenylalanylthio)-2-D-methylpropanoyl]-L-proline]

Compound: C[C@H](CSC(=O)[C@H](Cc1ccccc1)NC(=O)OC(C)(C)C)C(=O)N1CCC[C@H]1C(=O)O [N-alpha-[3-(N-alpha-tert-butyloxycarbonyl-L-phenylalanylthio)-2-D-methylpropanoyl]-L-proline]
- Blood Pressure Response to 400 ng/kg of Angiotensin I ([2]; 3 min, Ex. 233): 100 % of Control
- Blood Pressure Response to 400 ng/kg of Angiotensin I ([2]; 11 min, Ex. 233): 43 % of Control
- Blood Pressure Response to 400 ng/kg of Angiotensin I ([2]; 22 min, Ex. 233): 27 % of Control
- Blood Pressure Response to 400 ng/kg of Angiotensin I ([2]; 29 min, Ex. 233): 24 % of Control
- Blood Pressure Response to 400 ng/kg of Angiotensin I ([2]; 34 min, Ex. 233): 22 % of Control
- Blood Pressure Response to 400 ng/kg of Angiotensin I ([2]; 51 min, Ex. 233): 19 % of Control
- Blood Pressure Response to 400 ng/kg Angiotensin I ([3]; 0.5 min): 0 % of Control
- Blood Pressure Response to 400 ng/kg Angiotensin I ([3]; 3 min): 19 % of Control
- Blood Pressure Response to 400 ng/kg Angiotensin I ([3]; 9 min): 19 % of Control
- Blood Pressure Response to 400 ng/kg Angiotensin I ([3]; 13 min): 22 % of Control
- Blood Pressure Response to 400 ng/kg Angiotensin I ([3]; 18 min): 31 % of Control
- Blood Pressure Response to 400 ng/kg Angiotensin I ([3]; 22 min): 31 % of Control
- Blood Pressure Response to 400 ng/kg Angiotensin I ([3]; 34 min): 50 % of Control
- Blood Pressure Response to 400 ng/kg Angiotensin I ([3]; 47 min): 63 % of Control
- Blood Pressure Response to 400 ng/kg Angiotensin I ([3]; 65 min): 78 % of Control
- Blood Pressure Response to 400 ng/kg Angiotensin I ([3]; 103 min): 75 % of Control
- Blood Pressure Response to 400 ng/kg Angiotensin I ([3]; 113 min): 94 % of Control

- IC50 [1, 4]: 400 µM
Compound: O=C(N[C@@H](Cc1ccccc1)C(=O)O)c1ccccc1 [benzoyl-Phe]

- IC50 [1, 4]: 40 µM
Compound: N[C@@H](CCC(=O)N[C@@H](CS)C(=O)NCC(=O)O)C(=O)O [γ Glu--Cys--Gly (glutathione), γ Glu--Cys--Gly]

Compound: < Glu--Cys--Pro
- IC50 [1, 4]: 4 µM

Compound: Bz-Gly-Cys-Pro
- IC50 [1, 4]: 0.5 µM

Compound: Bz-Phe-Ala-Pro
- IC50 [1, 4]: 0.1 µM

Compound: Bz-Phe-Cys-Pro
- IC50 [1, 4]: 0.6 µM

Compound: Cys--Pro
- IC50 [1, 4]: 11 µM

Compound: Phe--Ala--Pro
- IC50 [1, 4]: 0.2 µM

Compound: acetyl-Cys--Pro
- IC50 [1, 4]: 5 µM

Compound: γ Glu--Cys--Pro
- IC50 [1, 4]: 11 µM
